According to patent publication US20250320189A1, “NEW DERIVATIVES FOR TREATING TRPM3 MEDIATED DISORDERS” (Katholieke Universiteit Leuven, priority 2022, published 2025):

Target: T1, mouse TRPM3α2 (mTRPM3) ion channel (Mus musculus, UniProt J9SQF3)
T1 construct: expressed in transfected cells; host or cells: flip-in (Flp-In) HEK293
Assay: Monitoring the TRPM3 ion channel driven Ca2+ uptake (Fluo-4 AM assay)
Assay type: cell-based
Settings: mTRPM3alpha2 overexpressing flip-in HEK293 cells, stimulated with Pregnenolone sulfate (PS) 50 μM
Experimental: In order to monitor the inhibition of the mouse TRPM3α2 (mTRPM3) ion channel by the compounds of the invention, a cellular system making use of an mTRPM3alpha2 or hTRPM3 overexpressing cell line (flip-in HEK293) was used. The TRPM3 channel was stimulated/opened with Pregnenolone sulfate (PS) (50 μM) which results in Ca^2+ influx.
For mTRPM3, the intracellular Ca^2+ was measured with a Calcium responsive dye, Fluor-4 AMV ester (Invitrogen). Cells were cultured until a confluence of 80-90%, washed with Versene (Invitrogen) and detached from the surface by a short incubation with 0.05% Trypsin (Invitrogen). The trypsination process was stopped by the addition of complete cell culture medium (DMEM, glutamax, 10% FCS, NEAA,Pen-Strep). Cells were collected and resuspended in Krebs buffer without Calcium at RT.
Prior the cell seeding (±2000 cells/well into a black, 384 well plate (Greiner)) the diluted compound was added in the assay plate, together with the PS dissolved in Krebs buffer containing Calcium. […] Directly after cell addition the plates were read on an Envision fluorescence reader (PerkinElmer) by an Excitation of 485 nm and emission at 535 nm.
Channel inhibition was calculated compared to a non-PS stimulated control versus a condition stimulated with PS (50 μM) with vehicle. The ability of the compounds of the invention to inhibit this activity was determined as: Percentage inhibition=[1−((RFU determined for sample with test compound present−RFU determined for sample with positive control inhibitor) divided by (RFU determined in the presence of vehicle−RFU determined for sample with positive control inhibitor))]*100.
The activities of the Example compounds tested are depicted in the table below. The activity ranges A, B and C refer to IC50 values in the Fluo-4 AM assay as follows: “A”: IC50<1 μM; “B”: 1 μM≤IC50≤20 μM and “C”: IC50>20 μM

T1 sequence (J9SQF3 1-1709 isoform J9SQF3-12): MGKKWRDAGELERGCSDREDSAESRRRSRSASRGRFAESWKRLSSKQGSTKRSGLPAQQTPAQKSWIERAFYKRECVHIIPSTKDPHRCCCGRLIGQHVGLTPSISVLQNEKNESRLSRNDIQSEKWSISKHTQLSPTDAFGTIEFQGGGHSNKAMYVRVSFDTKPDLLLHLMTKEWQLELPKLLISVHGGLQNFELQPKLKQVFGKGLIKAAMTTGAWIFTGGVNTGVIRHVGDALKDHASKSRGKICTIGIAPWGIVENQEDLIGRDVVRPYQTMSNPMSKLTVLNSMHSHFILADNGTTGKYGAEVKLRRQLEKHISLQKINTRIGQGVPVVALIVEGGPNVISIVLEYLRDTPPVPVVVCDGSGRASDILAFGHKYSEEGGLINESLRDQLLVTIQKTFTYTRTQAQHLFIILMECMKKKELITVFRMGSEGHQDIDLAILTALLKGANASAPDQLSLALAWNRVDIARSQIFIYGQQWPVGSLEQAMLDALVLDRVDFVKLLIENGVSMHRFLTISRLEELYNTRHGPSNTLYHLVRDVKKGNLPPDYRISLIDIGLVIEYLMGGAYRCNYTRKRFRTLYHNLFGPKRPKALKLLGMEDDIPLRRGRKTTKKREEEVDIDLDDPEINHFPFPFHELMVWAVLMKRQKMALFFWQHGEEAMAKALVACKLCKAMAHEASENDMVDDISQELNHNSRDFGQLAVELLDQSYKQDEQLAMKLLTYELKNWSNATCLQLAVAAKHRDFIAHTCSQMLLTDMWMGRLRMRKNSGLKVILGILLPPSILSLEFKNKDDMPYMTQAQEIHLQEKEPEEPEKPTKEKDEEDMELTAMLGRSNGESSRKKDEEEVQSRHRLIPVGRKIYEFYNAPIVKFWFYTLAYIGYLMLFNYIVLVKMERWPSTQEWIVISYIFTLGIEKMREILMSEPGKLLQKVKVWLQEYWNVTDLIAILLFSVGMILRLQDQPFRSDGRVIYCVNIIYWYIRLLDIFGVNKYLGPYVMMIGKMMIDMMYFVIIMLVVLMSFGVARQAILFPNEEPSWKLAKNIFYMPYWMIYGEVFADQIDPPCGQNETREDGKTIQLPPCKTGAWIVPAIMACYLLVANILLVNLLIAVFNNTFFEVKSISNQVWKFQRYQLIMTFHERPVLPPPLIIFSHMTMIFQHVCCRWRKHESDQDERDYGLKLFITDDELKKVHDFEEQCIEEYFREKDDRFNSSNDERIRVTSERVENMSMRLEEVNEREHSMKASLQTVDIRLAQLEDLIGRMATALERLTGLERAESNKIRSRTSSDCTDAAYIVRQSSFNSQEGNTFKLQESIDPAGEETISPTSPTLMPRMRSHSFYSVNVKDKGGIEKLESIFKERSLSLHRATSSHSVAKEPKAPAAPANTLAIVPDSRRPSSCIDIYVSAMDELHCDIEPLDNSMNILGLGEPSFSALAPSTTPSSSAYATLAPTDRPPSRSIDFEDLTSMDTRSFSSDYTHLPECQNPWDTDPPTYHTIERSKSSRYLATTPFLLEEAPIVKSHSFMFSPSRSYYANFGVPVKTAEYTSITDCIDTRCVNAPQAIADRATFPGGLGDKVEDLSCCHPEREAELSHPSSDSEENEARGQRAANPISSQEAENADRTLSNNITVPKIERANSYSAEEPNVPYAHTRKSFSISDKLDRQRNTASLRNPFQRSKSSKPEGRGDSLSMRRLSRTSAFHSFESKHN

SMILES: Cc1oc2ccc(OCC3CC3)cc2c1C(=O)N[C@H](CO)C(N)=O [Cpd 009, (2R)-2-{[5-(cyclopropylmethoxy)-2-methyl-1-benzofuran-3-yl]formamido}-3-hydroxypropanamide]
- IC50: < 1 µM

SMILES: Cc1oc2ccc(OCC3CC3)cc2c1C(=O)NC1(CO)CCCNC1=O (single isomer, unassigned) [Cpd 027 - En2, 5-(cyclopropylmethoxy)-N-[3-(hydroxymethyl)-2-oxopiperidin-3-yl]-2-methyl-1-benzofuran-3-carboxamide]
- IC50: 1 to 20 µM

SMILES: Cc1oc2ccc(OC[C@H]3C[C@@H]4C[C@@H]4C3)cc2c1C(=O)NC(C)(CO)C(N)=O (single isomer, unassigned) [Cpd 051 - En1, Trans-2-{[5-({bicyclo[3.1.0]hexan-3-yl}methoxy)-2-methyl-1-benzofuran-3-yl]formamido}-3-hydroxy-2-methylpropanamide]
- IC50: < 1 µM

SMILES: Cc1oc2ccc(OCC3CC3)cc2c1C(=O)NC1CCCNC1=O (single isomer, unassigned) [Cpd 055 - En1, 5-(cyclopropylmethoxy)-2-methyl-N-(2-oxopiperidin-3-yl)-1-benzofuran-3-carboxamide]
- IC50: < 1 µM

SMILES: Cc1oc2ccc(OCC3(C(F)F)CC3)cc2c1C(=O)NC(C)(CO)C(N)=O (single isomer, unassigned) [Cpd 014 - En1, 2-[(5-{[1-(difluoromethyl)cyclopropyl]methoxy}-2-methyl-1-benzofuran-3-yl)formamido]-3-hydroxy-2-methylpropanamide]
- IC50: < 1 µM

SMILES: Cc1oc2ccc(OCC3CC3)cc2c1C(=O)NC1(CO)CCC1 [Cpd 025, 5-(cyclopropylmethoxy)-N-[1-(hydroxymethyl)cyclobutyl]-2-methyl-1-benzofuran-3-carboxamide]
- IC50: < 1 µM

SMILES: Cc1oc2ccc(OCC3CC3)cc2c1C(=O)NC(C)(CO)CC(F)F (single isomer, unassigned) [Cpd 046 - En1, 5-(cyclopropylmethoxy)-N-(4,4-difluoro-1-hydroxy-2-methylbutan-2-yl)-2-methyl-1-benzofuran-3-carboxamide]
- IC50: < 1 µM

SMILES: Cc1oc2ccc(OCC3CC3)cc2c1C(=O)NC1(CO)CC1 [Cpd 026, 5-(cyclopropylmethoxy)-N-[1-(hydroxymethyl)cyclopropyl]-2-methyl-1-benzofuran-3-carboxamide]
- IC50: 1 to 20 µM

SMILES: Cc1oc2ccc(OCC3CC3(C)C)cc2c1C(=O)NC(C)(CO)C(N)=O (single isomer, unassigned) [Cpd 049 - En2, 2-({5-[(2,2-dimethylcyclopropyl)methoxy]-2-methyl-1-benzofuran-3-yl}formamido)-3-hydroxy-2-methylpropanamide]
- IC50: < 1 µM

SMILES: Cc1oc2ccc(OCC3CC3(F)F)cc2c1C(=O)NC1CCNCC1(F)F (single isomer, unassigned) [Cpd 031 - En4, 5-[(2,2-difluorocyclopropyl)methoxy]-N-(3,3-difluoropiperidin-4-yl)-2-methyl-1-benzofuran-3-carboxamide]
- IC50: < 1 µM

SMILES: Cc1oc2ccc(OCC3(C(F)(F)F)CC3)cc2c1C(=O)NC1(C)CCCNC1=O (single isomer, unassigned) [Cpd 061 - En1, 2-methyl-N-(3-methyl-2-oxopiperidin-3-yl)-5-{[1-(trifluoromethyl)cyclopropyl]methoxy}-1-benzofuran-3-carboxamide]
- IC50: > 20 µM

SMILES: Cc1oc2ccc(OCC3(C(F)F)CC3)cc2c1C(=O)NC(C)(CO)C(N)=O (single isomer, unassigned) [Cpd 014 - En2, 2-[(5-{[1-(difluoromethyl)cyclopropyl]methoxy}-2-methyl-1-benzofuran-3-yl)formamido]-3-hydroxy-2-methylpropanamide]
- IC50: < 1 µM

SMILES: Cc1oc2ccc(OCC3(C)CC3)cc2c1C(=O)NC1CCNCC1(F)F (single isomer, unassigned) [Cpd 032 - En2, N-(3,3-difluoropiperidin-4-yl)-2-methyl-5-[(1-methylcyclopropyl)methoxy]-1-benzofuran-3-carboxamide]
- IC50: 1 to 20 µM
